The values that follow come from patent US9290740B2, “Use of basic fibroblast growth factor in the de-differentiation of animal connective tissue cells” (Worcester Polytechnic Institute, priority 2008, dated 2016).

The assay concerns FGFR1, FGFR2, FGFR3, FGFR4 and FGF2 in adult human dermal fibroblasts. Put plainly: Expression and localization of FGF2 and FGF receptors (RT-PCR, immunocytochemistry). Format: cell-based. On the procedure: Adult human fibroblasts (CRL-2352, ATCC) were cultured in conditions of 37° C., 5% CO2, 5% O2 90% N2 were seeded into 24 well plates (BD Falcon) either without substrate or with 15 mm Thermanox® coverslips (Nalge Nunc) at 5,000 cells per well in medium consisting of DMEM with 4 mM fresh L-glutamine: Ham's F12 medium (50:50) supplemented with 1×TCH serum replacement (Protide Pharmaceuticals), 1×ITS-X (Invritrogen), 2% FetalClone III (Hyclone), and 4 ng/ml FGF2 (Chemicon). After 5 days, the cells were washed with DPBS w/o Ca/Mg (Mediatech) and fixed in methanol (−20° C.) for 10 min, washed with DPBS and stored in DPBS at 4° C. until use. For detection of nuclear antigens (Msx-1, Msx-2, Sox-2, Oct-4 and Nanog), enhanced nuclear membrane permeabilization was performed by incubation with 1.5 N HCl for 20 min, followed by 3 washes (5 min) in PBS. For immuno-cytochemistry, cells were washed with PBS/Tween (PBS, MediaTech with 0.05% Tween-20, Biorad) and blocked for 30 min at RT with PBS containing 0.05% Tween, 5% FBS, and 1% BSA). Primary antibodies (1:200 dilution) were added in blocking solution for 30 min at RT. Cells were washed 4× in PBS/Tween and Alexafluor-568 labeled appropriate secondary antibody diluted 1:1000 in blocking solution added for 30 min. Cells were washed 4× in PBS/Tween and stored in PBS at 4 C until image analysis. Antibodies used were: Msx-1 (SantaCruz, sc-17726), Msx-2 (Santa Cruz, sc-17729), Sox-2 (Abeam, ab15830), Oct4 (Santa Cruz, sc-8630), Nanog (abeam ab21624) FGF receptor-1 (Abgent, AP7636a), FGF Receptor-2 (Abgent, AP7636a), FGF2 (N-terminus, Santa Cruz sc-1390), FGF2 (internal, Santa Cruz sc-79), fibroblast specific protein (FSP, Sigma). Coverslips were removed and mounted onto glass slides in 80% glycerol in PBS containing 0.1% Na-Azide and sealed with nail polish. Cells were visualized using at Olympus IX81 inverted microscope with epi-fluorescence using appropriate filters (Semrock, Inc.) and phase contrast. Images were collected using a 12 bit Hamamatzu CCD camera (Model C4742-80-12AG) and images processes using Slidebook®. […]

“Also recorded” adds a separate entry of the source.

In the case of “FGF2: human recombinant FGF2 (Invitrogen, Chemicon or Protide), basic fibroblast growth factor”, the FGFR4 localization result (FGF2 addition) is listed as “no effect”. Also, the “localization of FGF2, FGFR1 and FGFR2 (immunocytochemistry)” value (cells supplemented with FGF2) is reported as “in the nucleus as well as on the cell surface; also recorded: translocated to the nucleus”. Further, where the note is “regardless of the culture conditions”, the “transcription of FGF receptors or FGF2 itself” value is on record as “no significant effect”.
